From patent publication US20240209401A1, “CULTURE MEDIUM COMPOSITION FOR INCREASING GROWTH AND METABOLIC RATE OF ACETOGENIC STRAIN AND METHOD FOR CULTURING ACETOGENIC STRAIN USING THE SAME” (GWANGJU INSTITUTE OF SCIENCE AND TECHNOLOGY, priority 2022, published 2024) come the findings set out here.

The test system of series [1] is acetogen strain. In words: Growth inhibition by high methanol concentration in the medium. In kind it is cell-based. As to conditions: with respect to the total medium composition. The text has this: In this case, the methanol may be contained in a concentration of more than 0 M and 1.5 M or less with respect to the total medium composition.
If the concentration of methanol exceeds 1.5 M, it is not preferable because growth inhibition occurs due to the addition of a high concentration of organic solvent.

In series [2] the test system is acetogen strain. In words: Steady-state culture (dilution rate of 0.018/h) with CO and CO2 gas substrates. As to conditions: methanol added. In kind it is cell-based. The source says: The method for culturing an acetogen strain may include a medium injection step of injecting the acetogen strain culture medium composition containing the C1 compound into a bioreactor; a strain inoculation step of inoculating the acetogenic strain into the culture medium composition; and a bioreactor driving step of culturing the acetogenic strain by driving the bioreactor. […]

As to `CO` [methanol], in the series on acetogen strain [1], the “concentration of methanol at which growth inhibition occurs” value is on record as “exceeds 1.5 M”. For the same compound, in the series with acetogen strain [2], the “cell concentration in the steady state” value turned out to be 17.4 g/L and the cell conversion yield was found to be 0.008 g DCW/mmol MeOH.
